Experimental data as given in patent US12559506B2, “Indazole based compounds and associated methods of use” (Arvinas Operations, Inc., priority 2021, dated 2026).
Read-outs that look alike come from different tables or passages of the source.

Columns and labels:
Assay type in all cases: cell-based
[1] = target: T1, LRRK2 (endogenous, HiBit tagged) (Homo sapiens, UniProt Q5S007); assay: Endogenous LRRK2 degradation assay, endogenous gene C-terminally HiBit-tagged in HEK293 cells (Nano-Glo Dual Luciferase); conditions: 24 hours; for Dmax: read-out: **Endogenous WT Dmax (%); for DC50: read-out: *Endogenous WT DC50
T1 construct: endogenous in cells; host or cells: HEK293 cells with HiBit knock-in at the endogenous LRRK2 locus, stably expressing firefly luciferase
T1 sequence (Q5S007 whole entry): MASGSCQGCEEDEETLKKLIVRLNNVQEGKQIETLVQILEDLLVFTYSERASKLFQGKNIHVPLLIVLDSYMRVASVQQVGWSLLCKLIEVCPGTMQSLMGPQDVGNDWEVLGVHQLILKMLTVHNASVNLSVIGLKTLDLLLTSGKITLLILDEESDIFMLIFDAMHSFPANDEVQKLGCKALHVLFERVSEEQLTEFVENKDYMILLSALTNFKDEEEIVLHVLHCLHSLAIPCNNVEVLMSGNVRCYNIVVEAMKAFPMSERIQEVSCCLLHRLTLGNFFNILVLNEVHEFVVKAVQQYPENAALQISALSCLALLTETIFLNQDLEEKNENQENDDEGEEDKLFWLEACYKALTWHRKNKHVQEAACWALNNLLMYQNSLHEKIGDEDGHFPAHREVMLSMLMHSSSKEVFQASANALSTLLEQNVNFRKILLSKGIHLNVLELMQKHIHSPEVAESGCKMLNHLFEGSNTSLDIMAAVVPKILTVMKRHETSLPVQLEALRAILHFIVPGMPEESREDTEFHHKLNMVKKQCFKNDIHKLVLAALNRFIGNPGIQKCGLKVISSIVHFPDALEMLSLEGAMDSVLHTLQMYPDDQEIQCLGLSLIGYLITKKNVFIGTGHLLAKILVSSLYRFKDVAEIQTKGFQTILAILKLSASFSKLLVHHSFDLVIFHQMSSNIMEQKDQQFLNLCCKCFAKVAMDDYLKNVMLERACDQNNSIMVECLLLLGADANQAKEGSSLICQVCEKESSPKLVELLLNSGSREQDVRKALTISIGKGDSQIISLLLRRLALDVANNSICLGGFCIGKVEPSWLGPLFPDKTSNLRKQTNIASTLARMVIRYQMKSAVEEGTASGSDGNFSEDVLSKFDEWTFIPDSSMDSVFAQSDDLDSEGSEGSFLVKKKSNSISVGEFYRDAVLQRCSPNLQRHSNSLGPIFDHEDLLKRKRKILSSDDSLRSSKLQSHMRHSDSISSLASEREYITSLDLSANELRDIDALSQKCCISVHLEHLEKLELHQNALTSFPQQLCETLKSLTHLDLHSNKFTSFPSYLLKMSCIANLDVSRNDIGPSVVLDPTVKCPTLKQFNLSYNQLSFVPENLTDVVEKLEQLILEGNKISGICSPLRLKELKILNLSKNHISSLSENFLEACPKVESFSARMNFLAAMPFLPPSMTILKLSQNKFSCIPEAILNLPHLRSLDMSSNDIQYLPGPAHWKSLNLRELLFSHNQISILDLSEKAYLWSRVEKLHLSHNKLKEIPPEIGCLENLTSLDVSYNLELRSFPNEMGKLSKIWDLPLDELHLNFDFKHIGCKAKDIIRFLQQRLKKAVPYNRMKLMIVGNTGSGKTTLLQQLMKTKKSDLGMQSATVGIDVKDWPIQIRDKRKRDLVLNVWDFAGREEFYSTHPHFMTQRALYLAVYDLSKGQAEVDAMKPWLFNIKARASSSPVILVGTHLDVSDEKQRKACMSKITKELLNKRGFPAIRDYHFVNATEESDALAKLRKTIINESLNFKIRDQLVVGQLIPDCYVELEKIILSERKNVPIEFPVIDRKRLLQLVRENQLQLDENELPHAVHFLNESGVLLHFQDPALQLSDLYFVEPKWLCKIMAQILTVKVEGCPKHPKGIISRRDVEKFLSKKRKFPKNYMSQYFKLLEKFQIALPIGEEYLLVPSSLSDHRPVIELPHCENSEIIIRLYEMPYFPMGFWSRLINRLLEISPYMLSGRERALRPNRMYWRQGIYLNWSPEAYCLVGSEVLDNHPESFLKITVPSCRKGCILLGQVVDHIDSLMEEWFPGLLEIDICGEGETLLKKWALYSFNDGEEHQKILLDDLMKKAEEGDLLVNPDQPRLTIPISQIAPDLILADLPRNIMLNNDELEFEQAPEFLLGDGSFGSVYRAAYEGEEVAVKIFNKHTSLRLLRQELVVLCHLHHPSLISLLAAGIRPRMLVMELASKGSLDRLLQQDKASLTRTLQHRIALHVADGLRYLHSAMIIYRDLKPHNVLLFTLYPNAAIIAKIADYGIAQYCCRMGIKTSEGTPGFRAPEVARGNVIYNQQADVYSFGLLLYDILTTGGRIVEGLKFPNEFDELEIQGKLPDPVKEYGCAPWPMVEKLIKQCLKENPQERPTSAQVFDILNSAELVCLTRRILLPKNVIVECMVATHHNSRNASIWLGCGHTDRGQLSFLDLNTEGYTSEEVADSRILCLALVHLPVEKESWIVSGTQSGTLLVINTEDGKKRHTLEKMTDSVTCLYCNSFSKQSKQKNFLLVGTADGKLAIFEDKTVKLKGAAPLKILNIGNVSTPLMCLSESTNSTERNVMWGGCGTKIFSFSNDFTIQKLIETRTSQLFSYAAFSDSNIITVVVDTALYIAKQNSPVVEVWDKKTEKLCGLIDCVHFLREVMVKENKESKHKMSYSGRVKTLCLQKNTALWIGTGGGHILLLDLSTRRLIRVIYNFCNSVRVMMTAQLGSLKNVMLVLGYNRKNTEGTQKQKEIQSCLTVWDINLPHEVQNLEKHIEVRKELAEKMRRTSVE
How it was run: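 LRRK2-HiBit quantified via Nano-Glo Dual Luciferase in HEK293 knock-in cells co-expressing firefly luciferase, after 24 h exposure to compound (1 μM final top, 1:3, 11 points). Values normalised to DMSO median per plate and curve-fitted; Alamar Blue viability run alongside.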

G2019S LRRK2 = target: T2, G2019S LRRK2 (Homo sapiens, UniProt Q5S007, G2019S); assay: LRRK2 degradation assay, HiBit-tagged G2019S LRRK2 expressed from plasmid in HEK293 cells (Nano-Glo Dual-Luciferase); conditions: 24 hours
T2 construct: expressed in transfected cells; host or cells: HEK293 (ATCC CRL-1573), transient transfection, mammalian expression vector with ubiquitin promoter
T2 sequence (Q5S007 whole entry G2019S): as the sequence (Q5S007 whole entry) above, with G2019S counted along it
How it was run: (§1)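 HEK293 cells co-transfected with C-terminal HiBiT-tagged LRRK2 (WT or G2019S, ubiquitin promoter) and firefly luciferase, then dosed 24 h at 37 °C. HiBiT/firefly ratio normalized to DMSO median; DC50 and Dmax from per-plate curve fits, six replicates over two days.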

wildtype LRRK2 = target: T3, wildtype LRRK2 (Homo sapiens, UniProt Q5S007); assay: LRRK2 degradation assay, HiBit-tagged wildtype LRRK2 expressed from plasmid in HEK293 cells (Nano-Glo Dual-Luciferase); conditions: 24 hours; for Dmax: read-out: **WT Dmax (%); for DC50: read-out: *WT DC50
T3 construct: expressed in transfected cells; host or cells: HEK293 (ATCC CRL-1573), transient transfection, mammalian expression vector with ubiquitin promoter
T3 sequence (Q5S007 whole entry): as the sequence (Q5S007 whole entry) above
How it was run: as §1

[2] = endogenous HiBit-tagged LRRK2 in HEK293 cells
[3] = HiBit-tagged G2019S LRRK2 in HEK293 cells
[4] = HiBit-tagged wildtype LRRK2 in HEK293 cells
[5] = endogenous HiBit-tagged LRRK2, HEK293 cells
[6] = HiBit-tagged G2019S LRRK2, HEK293 cells
[7] = HiBit-tagged wildtype LRRK2, HEK293 cells

Row | SMILES | Dmax [1, 2] | DC50 [1, 2] | DC50 (G2019S LRRK2; [3]) | Dmax (G2019S LRRK2; [3]) | Dmax (wildtype LRRK2; [4]) | DC50 (wildtype LRRK2; [4]) | Dmax [1, 5] | DC50 [1, 5] | DC50 (G2019S LRRK2; [6]) | Dmax (G2019S LRRK2; [6]) | Dmax (wildtype LRRK2; [7]) | DC50 (wildtype LRRK2; [7])
1 | C[C@H]1CN(c2cc(-c3[nH]nc4ccc(OC5(C)CC5)cc34)ncn2)CCN1CC1CCN(CC2CCN(c3cccc4c3C(=O)N(C3CCC(=O)NC3=O)C4=O)CC2)CC1 (stereo partly drawn) [Compound 137, 2-(2,6-dioxo-3-piperidyl)-4-[4-[[4-[[(2S)-2-methyl-4-[6-[5-(1-methylcyclopropoxy)-2H-indazol-3-yl]pyrimidin-4-yl]piperazin-1-yl]methyl]-1-piperidyl]methyl]-1-piperidyl]isoindoline-1,3-dione] | ≥ 70% | 10 to 50 nM | < 10 nM | ≥ 70% | ≥ 70% | < 10 nM |  |  |  |  |  | 
2 | CC1(Oc2ccc3n[nH]c(-c4cc(N5CC(OC6CCN(CC7CCN(c8ccc9c(c8)C(=O)N(C8CCC(=O)NC8=O)C9=O)CC7)CC6)C5)ncn4)c3c2)CC1 (stereo not drawn) [Compound 130, 2-(2,6-dioxo-3-piperidyl)-5-[4-[[4-[1-[6-[5-(1-methylcyclopropoxy)-2H-indazol-3-yl]pyrimidin-4-yl]azetidin-3-yl]oxy-1-piperidyl]methyl]-1-piperidyl]isoindoline-1,3-dione] | ≥ 70% | < 10 nM | < 10 nM | 50 to 70% | 50 to 70% | < 10 nM |  |  |  |  |  | 
3 | CC1(Oc2ccc3[nH]nc(-c4ccnc(N5CC(CC6CCN(CC7CCN(c8ccc9c(c8)C(=O)N(C8CCC(=O)NC8=O)C9=O)CC7)CC6)C5)c4)c3c2)CC1 (stereo not drawn) [Compound 160, 2-(2,6-dioxo-3-piperidyl)-5-[4-[[4-[[1-[4-[5-(1-methylcyclopropoxy)-1H-indazol-3-yl]-2-pyridyl]azetidin-3-yl]methyl]-1-piperidyl]methyl]-1-piperidyl]isoindoline-1,3-dione] |  |  |  |  |  |  | ≥ 70% | < 10 nM | < 10 nM | 50 to 70% | 50 to 70% | < 10 nM
4 | CC1(Oc2ccc3n[nH]c(-c4cc(N5CCC(COC6CCN(CC7CCN(c8ccc9c(c8)C(=O)N(C8CCC(=O)NC8=O)C9=O)CC7)CC6)CC5)ncn4)c3c2)CC1 (stereo not drawn) [Compound 61, 2-(2,6-dioxo-3-piperidyl)-5-[4-[[4-[[1-[6-[5-(1-methylcyclopropoxy)-2H-indazol-3-yl]pyrimidin-4-yl]-4-piperidyl]methoxy]-1-piperidyl]methyl]-1-piperidyl]isoindoline-1,3-dione] | ≥ 70% | < 10 nM | < 10 nM | ≥ 70% | ≥ 70% | < 10 nM |  |  |  |  |  | 

The next lines start with the values.

Row | Dmax [1, 2] | DC50 [1, 2] | DC50 (G2019S LRRK2; [3]) | Dmax (G2019S LRRK2; [3]) | Dmax (wildtype LRRK2; [4]) | DC50 (wildtype LRRK2; [4]) | Dmax [1, 5] | DC50 [1, 5] | DC50 (G2019S LRRK2; [6]) | Dmax (G2019S LRRK2; [6]) | Dmax (wildtype LRRK2; [7]) | DC50 (wildtype LRRK2; [7]) | SMILES
5 | ≥ 70% | < 10 nM | < 10 nM | ≥ 70% | ≥ 70% | < 10 nM |  |  |  |  |  |  | CC1(Oc2ccc3n[nH]c(-c4cc(N5CCC(CN6CCN(CC7CCN(c8ccc9c(c8)C(=O)N(C8CCC(=O)NC8=O)C9=O)CC7)CC6)CC5)ncn4)c3c2)CC1 (stereo not drawn) [Compound 68, 2-(2,6-dioxo-3-piperidyl)-5-[4-[[4-[[1-[6-[5-(1-methylcyclopropoxy)-2H-indazol-3-yl]pyrimidin-4-yl]-4-piperidyl]methyl]piperazin-1-yl]methyl]-1-piperidyl]isoindoline-1,3-dione]
6 | ≥ 70% | < 10 nM | < 10 nM | ≥ 70% | ≥ 70% | < 10 nM |  |  |  |  |  |  | C[C@H]1CN(c2cc(-c3[nH]nc4ccc(OC5(C)CC5)cc34)ncn2)CCN1CCC1(F)CCN(CC2CCN(c3ccc4c(c3)CN(C3CCC(=O)NC3=O)C4=O)CC2)CC1 (stereo partly drawn) [Compound 64, 3-[5-[4-[[4-fluoro-4-[2-[(2S)-2-methyl-4-[6-[5-(1-methylcyclopropoxy)-2H-indazol-3-yl]pyrimidin-4-yl]piperazin-1-yl]ethyl]-1-piperidyl]methyl]-1-piperidyl]-1-oxo-isoindolin-2-yl]piperidine-2,6-dione]
7 | 50 to 70% | < 10 nM | < 10 nM | < 50% | < 50% | < 10 nM |  |  |  |  |  |  | C[C@H]1CN(c2cc(-c3n[nH]c4ccc(OC5(C)CC5)cc34)ncn2)CCN1CC1(F)CCN(CC2CCN(c3ccc4c(c3)C(=O)N(C3CCC(=O)NC3=O)C4=O)CC2)CC1 (stereo partly drawn) [Compound 69, 2-(2,6-dioxo-3-piperidyl)-5-[4-[[4-fluoro-4-[[(2S)-2-methyl-4-[6-[5-(1-methylcyclopropoxy)-1H-indazol-3-yl]pyrimidin-4-yl]piperazin-1-yl]methyl]-1-piperidyl]methyl]-1-piperidyl]isoindoline-1,3-dione]
8 | ≥ 70% | < 10 nM | < 10 nM | ≥ 70% | ≥ 70% | < 10 nM |  |  |  |  |  |  | CC1(Oc2ccc3n[nH]c(-c4cc(N5CCC(CN6CCN(CC7CCN(c8ccc9c(c8)CN(C8CCC(=O)NC8=O)C9=O)CC7)CC6)CC5)ncn4)c3c2)CC1 (stereo not drawn) [Compound 112, 3-[5-[4-[[4-[[1-[6-[5-(1-methylcyclopropoxy)-2H-indazol-3-yl]pyrimidin-4-yl]-4-piperidyl]methyl]piperazin-1-yl]methyl]-1-piperidyl]-1-oxo-isoindolin-2-yl]piperidine-2,6-dione]
9 | ≥ 70% | < 10 nM | < 10 nM | 50 to 70% | 50 to 70% | < 10 nM |  |  |  |  |  |  | CC1(Oc2ccc3[nH]nc(-c4cc(N5CCN(C[C@@H]6CC(=O)N(CC7CCN(c8ccc9c(c8)C(=O)N(C8CCC(=O)NC8=O)C9=O)CC7)C6)CC5)ncn4)c3c2)CC1 (single isomer, unassigned) [Compound 121]
